Assay: Log P by HPLC on reversed phase columns (EEC directive 79/831 Annex V.A8)
Format: physicochemical
Description: Measurement of Log P values was performed according to EEC directive 79/831 Annex V.A8 by HPLC (High Performance Liquid Chromatography) on reversed phase columns with the following methods:
Calibration was done with straight-chain alkan2-ones (with 3 to 16 carbon atoms) with known Log P values (measurement of Log P values using retention times with linear interpolation between successive alkanones). Lambda-max-values were determined using UV-spectra from 200 nm to 400 nm and the peak values of the chromatographic signals.

chromatographic logP ([a] LC-UV, acidic range, 0.1% formic acid in water and acetonitrile as eluent): 4.38
chromatographic logP ([b] LC-UV, neutral range, 0.001 molar ammonium acetate solution in water and acetonitrile as eluent): 4.33
SMILES: CCN(C)/C=N/c1cc(C)c(Oc2ccccc2)cc1Br [Compound (I-4), N′-(2-bromo-5-methyl-4-phenoxyphenyl)-N-ethyl-N-methylimidoformamide]

— patent US20190313638A1, “ACTIVE COMPOUND COMBINATIONS” (priority 2016, published 2019)
